The values below come from publication PMC10794188, “Structure-based development of 3,5-dihydroxybenzoyl-hydrazineylidene as tyrosinase inhibitor; in vitro and in silico study” (Scientific Reports, 2024).

Assay [1] deals with tyrosinase. Briefly: Tyrosinase inhibitory assay (colorimetric, L-DOPA substrate). The following applies: for IC50: read-out: IC50 (µM) ± RSD. It counts as biochemical. Here is the method:
The tyrosinase inhibitory activities of derivatives were performed according to the previously reported procedures[26],[27]. All the test samples were first dissolved in DMSO at dilution to the required final concentrations. Initially, in a 96-well microplate, 10 µl of test samples were added to 160 µl of phosphate buffer (pH = 6.8), and then 10 µl tyrosinase was added. After the mixture was pre-incubated at 28 °C for 20 min, 20 µl of L-DOPA solution was added. DMSO without test compounds was used as the control, and kojic acid was used as a positive control. After 8 min incubation absorbance of samples was measured at 490 nm. Each assay was conducted as three separate replicates.

The target in assay [2] is mushroom tyrosinase. The following applies: cited from earlier work.
Assay [3] concerns tyrosinase. Briefly: Enzyme kinetic study (Lineweaver–Burk, L-DOPA). The class given is biochemical. An excerpt:
The Lineweaver–Burk reciprocal plot was provided by plotting 1/V against 1/[S] at variable concentrations of the L-DOPA.

Assay [4] relates to skin melanoma cells. Also noted: method as in PMID 34140181. The note with it: 8 µM; cited from earlier work.

Where two headings read alike, the source gives them in different places.

Take `Cc1cc([N+](=O)[O-])ccc1NC(=O)Cn1cc(COc2ccc(C=NNC(=O)c3cc(O)cc(O)c3)cc2)nn1` [Compound 11i, 2-(4-((4-((2-(3,5-dihydroxybenzoyl)hydrazineylidene)methyl)phenoxy)methyl)-1H-1,2,3-triazol-1-yl)-N-(2-methyl-4-nitrophenyl)acetamide]: the “% inhibition at 100 µM” value in assay [1] was determined as 15.05 ± 2.29%.

On to `CC(=O)c1cccc(NC(=O)COC(=O)/C=C/c2ccc(O)cc2O)c1` [D], for which the IC50 in assay [2] is 0.002 µM.

For `O=C(/C=C/c1ccc(O)cc1)c1cc(O)cc(O)c1` [A], the IC50 in assay [2] is 8.1 µM.

With `COc1ccc(NC(=O)Cn2cc(COc3ccc(C=NNC(=O)c4cc(O)cc(O)c4)cc3)nn2)cc1` [Compound 11m, 2-(4-((4-((2-(3,5-dihydroxybenzoyl)hydrazineylidene)methyl)phenoxy)methyl)-1H-1,2,3-triazol-1-yl)-N-(4-methoxyphenyl)acetamide], in assay [1], the “% inhibition at 100 µM” value worked out at 78.81 ± 7.35% and the IC50 was determined as 55.4 µM. Besides, the mode of inhibition entry in assay [3] (Lineweaver–Burk plot) is “competitive”. In assay [3] (secondary plot of Km vs inhibitor concentration, L-DOPA, read-out: dissociation constant Ki), the Ki worked out at 52.8 µM.

Take `O=C1NC(=O)C(=Cc2ccc(OCc3cn(Cc4ccccc4Cl)nn3)cc2)C(=O)N1` [Compound G]: the IC50 in assay [2] was 29.9 µM.

Take `O=C(Cn1cc(COc2ccc(C=NNC(=O)c3cc(O)cc(O)c3)cc2)nn1)Nc1ccc([N+](=O)[O-])cc1` [Compound 11h, 2-(4-((4-((2-(3,5-dihydroxybenzoyl)hydrazineylidene)methyl)phenoxy)methyl)-1H-1,2,3-triazol-1-yl)-N-(4-nitrophenyl)Acetamide]: the “% inhibition at 100 µM” value in assay [1] is 22.74 ± 2.86%.

`Cc1ccc(NC(=O)Cn2cc(COc3ccc(C=NNC(=O)c4cc(O)cc(O)c4)cc3)nn2)cc1` [Compound 11j, 2-(4-((4-((2-(3,5-dihydroxybenzoyl)hydrazono)methyl)phenoxy)methyl)-1H-1,2,3-triazol-1-yl)-N-(p-tolyl)acetamide]: the “% inhibition at 100 µM” value in assay [1] was found to be 15.22 ± 4.33%.

Consider `CCOc1cc(/C=N/NC(=O)c2ccc(O)c(OC)c2)ccc1O` [Compound C], for which, in assay [2], the IC50 was 1.58 µM.

`Cc1cccc(C)c1NC(=O)Cn1cc(COc2ccc(C=NNC(=O)c3cc(O)cc(O)c3)cc2)nn1` [Compound 11k, 2-(4-((4-((2-(3,5-dihydroxybenzoyl)hydrazineylidene)methyl)phenoxy)methyl)-1H-1,2,3-triazol-1-yl)-N-(2,6-dimethylphenyl)Acetamide]: the “% inhibition at 100 µM” value in assay [1] was 38.59 ± 0.74%.

For the molecule `O=c1cc(CO)occ1O` [Kojic acid, reference compound], in assay [1], the “% inhibition at 100 µM” value is recorded as 23.64 ± 2.56%.

For the molecule `O=C(N/N=C/c1ccc(Cl)cc1)c1ccc(O)cc1` [Compound E], the IC50 in assay [2] is 7.57 ± 0.01 µM.

Take `O=C(Cn1cc(COc2ccc(C=NNC(=O)c3cc(O)cc(O)c3)cc2)nn1)Nc1ccc(Cl)cc1` [Compound 11d, N-(4-chlorophenyl)-2-(4-((4-((2-(3,5-dihydroxybenzoyl)hydrazineylidene)methyl)phenoxy)methyl)-1H-1,2,3-triazol-1-yl)Acetamide]: the “% inhibition at 100 µM” value in assay [1] was 22.82 ± 0.53%.

For `O=C(Cn1cc(COc2ccc(C=NNC(=O)c3cc(O)cc(O)c3)cc2)nn1)Nc1ccc(F)cc1` [Compound 11c, 2-(4-((4-((2-(3,5-dihydroxybenzoyl)hydrazono)methyl)phenoxy)methyl)-1H-1,2,3-triazol-1-yl)-N-(4-fluorophenyl)acetamide], in assay [1], the “% inhibition at 100 µM” value came out at 32.28 ± 2.76%.

For the molecule `Clc1ccc(Cn2cc(COc3ccc(-c4nc5ccccc5[nH]4)cc3)nn2)cc1Cl` [Compound F], the IC50 in assay [2] is 9.42 µM.

As for `O=C(Cn1cc(COc2ccc(C=NNC(=O)c3cc(O)cc(O)c3)cc2)nn1)Nc1ccc(Cl)cc1Cl` [Compound 11f, N-(2,4-dichlorophenyl)-2-(4-((4-((2-(3,5-dihydroxybenzoyl)hydrazineylidene)methyl)phenoxy)methyl)-1H-1,2,3-triazol-1-yl)acetamide], the “% inhibition at 100 µM” value in assay [1] is listed as 19.54 ± 2.48%.

In the case of `CCc1ccc(NC(=O)Cn2cc(COc3ccc(C=NNC(=O)c4cc(O)cc(O)c4)cc3)nn2)cc1` [Compound 11l, 2-(4-((4-((2-(3,5-dihydroxybenzoyl)hydrazineylidene)methyl)phenoxy)methyl)-1H-1,2,3-triazol-1-yl)-N-(4-ethylphenyl)acetamide], in assay [1], the “% inhibition at 100 µM” value is reported as 55.52 ± 4.63% and the IC50 was 87.5 µM.

With `NC(=S)N/N=C/c1ccc(OCc2cn(CC(=O)NCc3ccccc3)nn2)cc1` [Compound H], in assay [4], the melanin content was 39.8%. Moreover, the IC50 is 0.17 µM in assay [2] (L-DOPA as substrate) and 0.11 µM in assay [2] (L-tyrosine as substrate).

For the molecule `O=C(Cn1cc(COc2ccc(C=NNC(=O)c3cc(O)cc(O)c3)cc2)nn1)Nc1ccccc1F` [Compound 11b, 2-(4-((4-((2-(3,5-dihydroxybenzoyl)hydrazono)methyl)phenoxy)methyl)-1H-1,2,3-triazol-1-yl)-N-(2-fluorophenyl)acetamide], the “% inhibition at 100 µM” value in assay [1] came to 22.99 ± 1.20%.

Regarding `O=C(Cn1cc(COc2ccc(C=NNC(=O)c3cc(O)cc(O)c3)cc2)nn1)Nc1c(Cl)cccc1Cl` [Compound 11g, N-(2,6-dichlorophenyl)-2-(4-((4-((2-(3,5-dihydroxybenzoyl)hydrazineylidene)methyl)phenoxy)methyl)-1H-1,2,3-triazol-1-yl)Acetamide], the “% inhibition at 100 µM” value in assay [1] is 27.87 ± 1.83%.

As to `O=C(Cn1cc(COc2ccc(C=NNC(=O)c3cc(O)cc(O)c3)cc2)nn1)Nc1ccc(Br)cc1` [Compound 11e, N-(4-bromophenyl)-2-(4-((4-((2-(3,5-dihydroxybenzoyl)hydrazono)methyl)phenoxy)methyl)-1H-1,2,3-triazol-1-yl)acetamide], in assay [1], the “% inhibition at 100 µM” value is recorded as 14.13 ± 2.31%.

Take `O=C(Cn1cc(COc2ccc(C=NNC(=O)c3cc(O)cc(O)c3)cc2)nn1)NCc1ccccc1` [Compound 11n, N-benzyl-2-(4-((4-((2-(3,5-dihydroxybenzoyl)hydrazineylidene)methyl)phenoxy)methyl)-1H-1,2,3-triazol-1-yl)acetamide]: the “% inhibition at 100 µM” value in assay [1] is 17.48 ± 1.79%.

Turning to `O=C(Cn1cc(COc2ccc(C=NNC(=O)c3cc(O)cc(O)c3)cc2)nn1)Nc1ccccc1` [Compound 11a, 2-(4-((4-((2-(3,5-dihydroxybenzoyl)hydrazineylidene)methyl)phenoxy)methyl)-1H-1,2,3-triazol-1-yl)-N-phenylacetamide], in assay [1], the “% inhibition at 100 µM” value was found to be 53.87 ± 1.53% and the IC50 turned out to be 90.5 µM.

The term % inhibition denotes the share of the control response that was lost under treatment. Low values mean a weak effect, high ones a strong effect. Usually IC50 stands for the concentration needed to halve the response being measured. What is called Ki is a dissociation constant, usually derived from enzyme kinetics or from competition with a known ligand.
